Assay: Release by thiol addition and hydride reduction (TLC)
Assay type: physicochemical
Conditions: water with a drop of acetic acid, 2 hours
Experimental: A portion of the amide was dissolved in water with a drop of acetic acid. This yellow solution was divided into two portions. One portion was treated with sodium dithionite, a reducing agent, and the other was treated with 2-mercaptoethanol. After 2 hours, the samples were diluted with water and extracted with ethyl acetate.

With `CN1CCN(C(=O)CC(C)(C)C2=CC(=O)c3ccccc3C2=O)CC1` [Example 8] the “Release by thiol addition, TLC result” value (2-mercaptoethanol) was “the amide had been consumed with a colorless, non-polar product (lactone) being formed” and the “Release by hydride reduction, TLC result” value (sodium dithionite) was “the amide had been consumed with a colorless, non-polar product (lactone) being formed”.

Source: patent publication US20120171229A1, “SYNTHETIC NANOCARRIERS WITH REACTIVE GROUPS THAT RELEASE BIOLOGICALLY ACTIVE AGENTS” (Selecta Biosciences, Inc., priority 2010, published 2012)
